Entries after “also recorded” stand apart in the source; their conditions may differ.
How the values were obtained:
CHKA [1] = molecular target: T1, CHKA (Homo sapiens, UniProt P35790); assay: Competitive affinity-based chemoproteomics (UNC0965 matrix), PBMC cell extract; format: binding; set-up: endogenous in cells; settings: 20 µM competitor
Protocol: described.[2] Lysates were precleared with bead slurry (100 μL) for 30 min at 4 °C and then treated with UNC0638 or UNC0737 (20 μM) or DMSO control for 30 min at 4 °C followed by incubation with affinity matrix for 2 h at 4 °C. Affinity matrices were washed with buffer A (5 mL) and proteins eluted with 100 μL of 2x Laemmli sample buffer, 100 mM DTT, in PBS and heating for 10 min at 90 °C.
Eluents (70 µL) were diluted in 0.1 M Tris (pH 7.8) to 200 µL, reduced with 5 mM DTT for 30 min at RT, and alkylated with 20 mM iodoacetamide for 30 min at RT in the dark. Proteins were precipitated by sequential addition of MeOH (600 µL), CHCl3 (150 µL) and H2O (450 µL), pelleted (17,000 × g, 5 min), washed with further MeOH (2 × 600 µL), and re-pelleted. Air dried pellets were resuspended in 50 μL 6 M urea (pH 7.8) by vortexing and then diluted with 250 μL H2O before adding 1 µg trypsin for overnight incubation at 37 °C. The digests were acidified with FA (1% v/v final concentration), desalted using SOLA HRP SPE Cartridges (Thermo Fisher), eluted with 69% v/v MeCN, 0.1% v/v FA in H2O (600 μL) and dried in vacuo. Dried peptides were stored at -20 °C before resuspension in 2% v/v MeCN, 0.1% v/v FA in H2O (20 μL) for LC-MS/MS analysis.
LC-MS/MS Data Acquisition
Digested samples were analysed by nano-UPLC–MS/MS using a Dionex Ultimate 3000 nano UPLC fitted with an EASY spray column (75 μm × 500 mm, 2 μm particle size, Thermo Scientific), coupled to an Orbitrap Q Exactive instrument. […]
Raw data was processed using MaxQuant[3] version 2.0.1.0 and the reference complete human proteome FASTA file (UniProt, downloaded 05.08.21). Label Free Quantification (LFQ) and Match Between Runs were selected; Cysteine carbamidomethylation was selected as a fixed modification, and methionine oxidation and asparagine deamidation as variable modifications. Default settings for identification and quantification were used. […]
mode selected for both identification and quantification of proteins (razor peptides are uniquely assigned to protein groups and not to individual proteins).
Target sequence in this assay (P35790 whole entry): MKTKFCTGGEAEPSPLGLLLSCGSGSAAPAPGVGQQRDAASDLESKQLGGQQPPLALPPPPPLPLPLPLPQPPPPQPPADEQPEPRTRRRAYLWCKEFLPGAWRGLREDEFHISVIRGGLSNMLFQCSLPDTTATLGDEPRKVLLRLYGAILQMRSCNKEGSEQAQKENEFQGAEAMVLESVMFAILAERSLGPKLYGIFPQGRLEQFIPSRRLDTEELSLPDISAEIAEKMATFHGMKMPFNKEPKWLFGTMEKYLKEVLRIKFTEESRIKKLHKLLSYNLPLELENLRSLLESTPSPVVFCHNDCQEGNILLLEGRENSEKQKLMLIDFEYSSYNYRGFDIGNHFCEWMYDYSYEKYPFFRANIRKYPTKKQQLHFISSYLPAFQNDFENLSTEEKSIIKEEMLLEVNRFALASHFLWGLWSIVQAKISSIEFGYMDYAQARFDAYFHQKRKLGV

CHKA [2] = molecular target: T1, CHKA; assay: PK/LDH coupled choline kinase enzyme assay; format: biochemical; set-up: host or cells: E. coli BL21(DE3); settings: concentration-dependent
Protocol: carried out using REFMAC[9] and COOT,[10] and concluded when no improvements resulted for Rfree and Rwork values, and when density maps indicated no further changes were justified.
Choline Coupled Enzymatic Assay
CHKA (120 ng, 24 µg/ml) was arrayed (5 µL) into a 96 well semi-skirted real time PCR plate. 4-fold dilution series and vehicle controls (0.5% DMSO) were prepared in a separate plate. A further DMSO control was included for use with a no protein well control. The dilutions (17 µL) were mixed with reaction buffer (136 µL, see Table below) and arrayed (45 µL) onto the CHKA-containing PCR plate.
After mixing, bubbles were removed by centrifugation (1000 × g, 1 min) and absorbance read at 340 nm on a PheraSTAR FSX (BMG Labtech), reading every minute for 10 min. Non-linear curve fitting and graph generation was performed using Graphpad Prism 8 software.
Components of the assay reaction buffer.
Component Stock concentration Volume per buffer Final reaction […]
Experiments were performed as described earlier with few modifications. In short, 3 replicates of intact HepG2 cells were treated with 30 µM UNC0638, UNC373 or corresponding volume of DMSO in medium-free experimental buffer for 60 min at 37 °C with end-over-end rotation. For lysates: Washed K562 cells were resuspended in medium-free experimental buffer and lysed by three freeze-thaw cycles. […]
Target sequence in this assay (P35790 75-457 limits assumed): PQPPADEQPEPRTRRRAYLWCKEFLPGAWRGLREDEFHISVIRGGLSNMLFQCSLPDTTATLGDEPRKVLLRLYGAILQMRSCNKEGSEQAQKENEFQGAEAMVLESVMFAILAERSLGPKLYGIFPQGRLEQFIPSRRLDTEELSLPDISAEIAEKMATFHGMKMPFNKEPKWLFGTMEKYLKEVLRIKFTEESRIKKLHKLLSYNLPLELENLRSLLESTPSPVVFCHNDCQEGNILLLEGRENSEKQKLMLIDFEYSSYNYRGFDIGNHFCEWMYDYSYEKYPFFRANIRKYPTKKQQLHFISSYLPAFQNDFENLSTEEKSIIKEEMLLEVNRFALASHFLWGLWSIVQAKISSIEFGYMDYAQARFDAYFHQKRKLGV

| SMILES | competition for CHKA binding to affinity matrix (CHKA [1]) | CHKA catalytic activity (CHKA [2]) |
| --- | --- | --- |
| COc1cc2c(NC3CCN(C(C)C)CC3)nc(C3CCCCC3)nc2cc1OCCCN1CCCC1 [UNC0638] | sole shared target | suppressed CHKA catalytic activity |
| COc1cc2c(N(C)C3CCN(C(C)C)CC3)nc(C3CCCCC3)nc2cc1OCCCN1CCCC1 [UNC0737] | sole shared target; also recorded: reduced stronger | suppressed CHKA catalytic activity |

Source: publication PMC11811597, “Phenomics‐Based Discovery of Novel Orthosteric Choline Kinase Inhibitors” (Angewandte Chemie (International Ed. in English), 2025)
